Compound | melting point [°C]
Cn1nc(S(N)(=O)=O)c2c(F)cccc21 | 221 to 223
CO/C(=C\C=C\c1cc2cc(Cl)c(Cl)cc2[nH]1)C(=O)NC1CC(C)(C)N(C)C(C)(C)C1 | 212
Cc1cccc(C)c1C(=O)NCC(=O)N1c2ccccc2N(Cc2ccccc2)C(=O)[C@H]2CCC[C@H]21 (relative stereo) | 208 to 209
Cc1cccc([N+](=O)[O-])c1CC(CC(=O)O)C(=O)O (stereo not drawn) | 172 to 176
CCOC(=O)CCc1cccc(N)c1 | 132 to 135
C/C(=N\OCCOc1ccc(C(=O)O)c(Cl)c1)c1ccc(C(C)(C)C)cc1 | 143 to 144
Nc1ccc2oc(-c3ccccc3)cc2c1 | 156
CC/C=C/Cn1c(Sc2cc(C)cc(C)c2)c(CC)c(=O)[nH]c1=O | 129 to 130
CC(C)Sc1ccc2c(c1)NC(=O)C2 | 99 to 102
C#Cc1cn(C2CC(O)C(CO)O2)c(=O)n(C(=O)c2ccccc2)c1=O (stereo not drawn) | 156 to 157
OCc1ccc(-c2ccc3[nH]cc(C[C@H]4CCCN4)c3c2)cc1 | 65 to 69
CC(=O)N1CCN(c2c([N+](=O)[O-])cc([N+](=O)[O-])cc2C(F)(F)F)CC1 | 126
COc1cc(C(C)(C)O)c(OCc2ccccc2)cc1N1CCN(Cc2ccccc2)CC1 | 94 to 96
NCCN1C(=O)CN(c2ccc3c(c2)OCO3)C1=O | 171 to 173
CN1CCN(c2ccc(S(=O)(=O)Oc3cccc(F)c3)cc2)C1=O | 175 to 177
CCCOc1ccccc1-c1nc2c(CCC)nn(C)c2c(=S)[nH]1 | 111 to 112
c1ccc(-c2cc(-c3ccccc3)c(N3CCN(c4ncccn4)CC3)nn2)cc1 | 71 to 74
CC(=O)N1CCOc2ccc(C3=NNC(=O)CC3C)cc21 (stereo not drawn) | 186
CN(Cc1ccc(-c2ccc(O)c(Br)c2)cc1)C(=O)c1cn(Cc2ccccc2)c2ccccc12 | 164 to 170
O=c1cnc(-c2ccc([N+](=O)[O-])cc2)c[nH]1 | 336 to 338
COc1cccc(N(C)c2nc(NC(=O)C(C)(C)C)nc3[nH]c4ccccc4c23)c1 | 248 to 249
COc1ccc(Cc2cnc(NCCSCc3nccs3)[nH]c2=O)cn1 | 95 to 97
O=C(Nc1ccc(OCCN2CCOCC2)c2ccccc12)c1cc(F)cc(N2CCOCC2)c1 | 123 to 124
CCOC(=O)c1cc2c3n(ccc-2n1)CC(CCl)=N3 | 270 to 272

Compound | melting point [°C]
Cc1nc(Cl)c(C#N)c(C)c1-c1ccccc1 | 118 to 123
COc1cc(Br)c(C2=NC(C)(C)CO2)cc1OC | 49 to 51
Cn1cc(-c2ccc(Cl)cc2)c(=S)c(-c2cccc(C(F)(F)F)c2)c1 | 239 to 242
Cc1cc(-c2nc3cccnn3c2-c2ccnc(NC(=O)c3cccnc3C)c2)ccc1F | 258 to 259
CNc1cc(-n2cc(C(=O)O)c(=O)c3cc(F)c(NC)c(C)c32)c(F)cc1F | 220 to 222
CNC(=O)c1ccc(F)c2c1CC(N(CCCCc1c[nH]c3ccc(F)cc13)CC1CC1)CO2 (stereo not drawn) | 112
FC(F)(F)Oc1ccc(-n2cc(Br)cn2)cc1 | 63 to 65
Cc1ccc(S(=O)(=O)N2CCC(CC(C#N)(c3ccccc3)c3ccccc3)CC2)cc1 | 130
O=C1[C@H]2CCC[C@H]2N(C(=O)CCl)c2ccccc2N1Cc1ccccc1 (relative stereo) | 154 to 156
CCNc1ccc(F)c(-c2cccnc2)c1F | 79 to 80
CC1(C)C=Cc2c(ccc3c2C(=O)C(=O)C=C3)O1 | 109 to 110
COC(=O)C1=C(C)NC(CC(=O)N2CCN(C3CCC4CCC3C4)CC2)=C(C(=O)OC)C1c1c(Cl)cccc1Cl (stereo not drawn) | 197 to 207
CCNc1ccc(C)c(O)c1 | 128 to 129
O=Cc1ccc2c(=O)c3ccccc3ccc2c1 | 149 to 152
N#Cc1cnn(-c2c(Cl)cc(SC(F)(F)F)cc2Cl)c1N | 185 to 187
CC1(C)CC(=O)C2=C(C1)NC1=C(C(=O)CC(C)(C)C1)C2c1ccc(Br)c([N+](=O)[O-])c1 | > 300
CC[Si](CC)(CC)c1ccccc1S(N)(=O)=O | 85.6
CC(C)(C)c1cc(C(=O)Nc2cc(Cl)c(Cl)cc2NC(=O)NC23CC4CC(CC(C4)C2)C3)cc(C(C)(C)C)c1O | 203 to 207
CS(=O)(=O)c1ccc(-c2cnn(C3CCc4ccccc43)c(=O)c2-c2ccc(F)cc2)cc1 (stereo not drawn) | 128 to 130
COc1ccc(N(Cc2cnn(Cc3ccc(C(F)(F)F)cc3)c2)C(=O)C2CCCc3c(O)cccc32)cn1 (stereo not drawn) | 199 to 200
CCOC(=O)Cc1cccc2c(-c3ccc(N)cc3)nccc12 | 129 to 132
CN1CCc2c(c3cc(F)ccc3n2CCc2nc(-c3ccccc3)cs2)C1 | 136 to 137
O=[N+]([O-])c1ccc(Sc2ccc(C(F)(F)F)cc2)c2nonc12 | 134 to 138
O=c1sc2cc(Cl)ccc2n1CCCCl | 131 to 132
